Paper PMC11695783 (Frontiers in Pharmacology, 2024)
Several values for one entry are separate records, joined by “and”; a condition that tells them apart may be missing. Equal values may be shown once.

Tests used:
[1] = test system: Mycoplasma pneumoniae-infected mice (lung tissue); test: Histopathological assessment of lung tissue (HPS, response and recovery rates) in M. pneumoniae-infected mice; type: in vivo, BALB/c mice; set-up: HPS value (mean) / HPS: scale not given here; settings: for HPS: individual mice, listed as TiamulinIM
Protocol: (§1) Adult BALB/c mice (20–22 g) were divided into a control group, a positive group, and compound 16C groups at low (20 mg/kg), medium (40 mg/kg), and high-dose (80 mg/kg) levels and oral and intramuscular tiamulin treatment groups (40 mg/kg). We formulated the above dose range based on the dose at which tiamulin was approved for injection (10–20 mg/kg) and the dose previously reported (45 mg/kg) ([EMA, 1999]; [Xiao et al., 2016]). In summary, we selected similar doses for compound 16C in vivo study. 40 mg/kg was used as an intermediate value, one-half of it as a low dose, and two times of it as a high dose. To prepare the challenge solution, logarithmic phase culture suspensions were centrifuged at 1700 g for 10 min, and the pellets were suspended in sterile PBS to obtain 1 × 10^9 CFU/mL. Before the challenge, mice were anesthetized with tribromoethanol (250 mg/kg, IP). Mice in the control groups were intratracheally inoculated with sterile PBS, whereas mice in the other groups were intratracheally challenged with 50 μL (1 × 10^9 CFU/mL) M. pneumoniae suspension once a day for 3 days. Compound 16C and tiamulin (tiamulin-IM group) dissolved using the method mentioned in pharmacokinetic studies, and the tiamulin fumarate soluble powder was dissolved in ddH2O for oral administration. After the final challenge, antibiotics were administered at low, medium, and high-dose levels (see above) at 10 a.m. and 10 p.m. daily for 4 consecutive days. Normal saline containing 5% DMSO and 5% Tween-80 was administered as control and positive groups by thigh intramuscular injection. To compare the efficacy of compound 16C and tiamulin under the same route of administration, we used the original tiamulin for intramuscular administration in the same formulation. On the other hand, tiamulin fumarate soluble powder, approved for oral administration to treat animal mycoplasma diseases in China, was administered to mice by gavage. Based on a clinical study of lefamulin in community-acquired bacterial pneumonia (CABP), subjects were administered twice a day and the 96 ± 24 h of starting treatment was an essential point for early clinical response (ECR) ([Paukner et al., 2022]). We therefore stopped treatment at 96 h and sampled at 192 h to explore whether the disease worsened after cessation of treatment. Bronchoalveolar lavage fluid (BALF) and lungs were collected at 0, 96, 192 h (Samples of 0 h were collected before starting treatment, and mice were fed ad libitum without drug treatment during 96–192 h) after the first dose, BALF for cytokine and cytological analysis and lung for histopathological evaluation.
Lung tissues were collected at 0, 96, and 192 h following drug administration. Lungs were collected from 6 mice in each group at 96 h and 13–15 mice in each group at 192 h. In addition, the lungs of 8 untreated infected mice were taken at 0 h as initial controls. Lung tissues were fixed in 4% paraformaldehyde, and whole-mount sections of paraffin-embedded lungs were stained with hematoxylin and eosin (H&E). The histopathologic score (HPS) was determined according to published protocols by a single pathologist who was unaware of the treatment status and groups of the animals ([Cimolai et al., 1992]). The HPS was based on individual grading of peribronchiolar/bronchial infiltrate, bronchiolar/bronchial luminal exudate, perivascular infiltrate, and parenchymal pneumoniae.

[2] = test system: IFN-γ; test: IFN-γ in BALF of M. pneumoniae-infected mice (ELISA); type: in vivo, BALB/c mice; settings: tiamulin 40 mg/kg IM; for IFN-γ in BALF (AV): group AV; for IFN-γ in BALF: individual mice, listed as Tiamulin-IM
Protocol: as §1
(§2) Bronchoalveolar lavage was performed according to a standardized method ([Van Hoecke et al., 2017]). BALF was obtained following infusion of 0.5 mL PBS via tracheal cannulation into the lung twice (total 1 mL), and 200 µL was used for mycoplasma counts. The remaining BALF was centrifuged at 300 g for 10 min to separate the debris. The supernatants were stored at −80°C, and the debris was resuspended in the same volume of PBS containing red blood cell lysis buffer. A hemocytometer was used to count total cell numbers in BALF, and cell smears (Diff-Quik staining) were prepared to calculate the percentages of neutrophils, macrophages, and lymphocytes. IFN-γ, TNF-α, and CXCL1 levels in BALF samples were assessed using commercial ELISA kits using guidelines recommended by the manufacturer (Elabscience, Wuhan, China). Parallel data for each experimental group at each time point were obtained from six different mice.

[3] = test system: inflammatory cells in BALF (neutrophils, macrophages, lymphocytes); test: Inflammatory cell analysis in BALF of M. pneumoniae-infected mice; type: in vivo, BALB/c mice; settings: for cell counts, total (AV) / cell counts, 中 (neutrophils) (AV) / cell counts, 巨 (macrophages) (AV) / cell counts, 淋 (lymphocytes) (AV): Tiamulin(40mg/kg) group; for total number of inflammatory cells in BALF compared with the positive controls: 96 h
Protocol: as §1, §2

[4] = test system: Mycoplasma pneumoniae; test: In vivo pharmacodynamic study: Mycoplasma pneumoniae loads in BALF of infected mice; set-up: species or system BALB/c mice; settings: for microbial reduction in BALF: 96 h; for MPcounts in BALF (AV) / MPcounts in BALF: tiamulin 40 mg/kg IM; for MPcounts in BALF (AV): group AV; for MPcounts in BALF: individual mice, listed as TiamulinIM
Protocol: as §1, §2

[5] = M. pneumoniae-infected mice, IM, n=13-15
[6] = M. pneumoniae-infected mice, PO, n=13-15
[7] = tiamulin 40 mg/kg IM, from HPS at 192 h

For `C=C[C@]1(C)C[C@@H](OC(=O)CSCCN(CC)CC)[C@]2(C)[C@H](C)CC[C@]3(CCC(=O)[C@H]32)[C@@H](C)[C@@H]1O` [tiamulin, Tiamulin, reference compound], the Recovery [1, 5] was 35.7%, the Response [1, 5] was 100% and the Recovery [1, 6] was 6.67%. For the same compound, the Response [1, 6] was 86.67%, the “HPS value (mean)” value ([1]; tiamulin 40 mg/kg IM, 96 h) was 1 and the HPS ([1]; tiamulin 40 mg/kg IM, 96h) was 2.5 and 0.5 and 1. The HPS ([1]; tiamulin 40 mg/kg IM, 192h) was 0.5 and 0 and 1, the Recovery [1, 7] was 35.7% and the Response [1, 7] was 100%. The “IFN-γ in BALF (AV)” value ([2]; 96h) was 32.2202 pg/mL, the “IFN-γ in BALF” value ([2]; 96 h) was 44.0596 pg/mL and 23.033 pg/mL and 20.7601 pg/mL and 28.3723 pg/mL and 44.8757 pg/mL and the “IFN-γ in BALF (AV)” value ([2]; 192 h) was 31.227 pg/mL. For the same compound, the “IFN-γ in BALF” value ([2]; 192 h) was 40.7875 pg/mL and 41.6067 pg/mL and 42.4252 pg/mL and 23.316 pg/mL and 21.0452 pg/mL and 18.1814 pg/mL, the “cell counts, total (AV)” value ([3]; time 0) was 30.4125 n*10^5 and the “cell counts, 中 (neutrophils) (AV)” value ([3]; time 0) was 26.5281 n*10^5. For the same compound, the “cell counts, 巨 (macrophages) (AV)” value ([3]; time 0) was 3.545 n*10^5, the “cell counts, 淋 (lymphocytes) (AV)” value ([3]; time 0) was 0.3394 n*10^5 and the “cell counts, total (AV)” value ([3]; time 96) was 9.854 n*10^5. The “cell counts, 中 (neutrophils) (AV)” value ([3]; time 96) was 1.672 n*10^5, the “cell counts, 巨 (macrophages) (AV)” value ([3]; time 96) was 3.529 n*10^5 and the “cell counts, 淋 (lymphocytes) (AV)” value ([3]; time 96) was 4.653 n*10^5. The “cell counts, total (AV)” value ([3]; time 192) was 10.35 n*10^5, the “cell counts, 中 (neutrophils) (AV)” value ([3]; time 192) was 0.1129 n*10^5 and the “cell counts, 巨 (macrophages) (AV)” value ([3]; time 192) was 3.034 n*10^5. For the same compound, the “cell counts, 淋 (lymphocytes) (AV)” value ([3]; time 192) was 7.204 n*10^5, the “total number of inflammatory cells in BALF compared with the positive controls” value ([3]; tiamulin intramuscular 40 mg/kg) was “significantly lower” and the “number of cells in BALF four days following treatment cessation” value ([3]; tiamulin intramuscular 40 mg/kg, 192 h, similar to control group (P> 0.05)) was “lower than that of the positive control”. For the same compound, the “total number of inflammatory cells in BALF compared with the positive controls” value ([3]; tiamulin orally administered 40 mg/kg) was “not statistically significant”, the “microbial reduction in BALF” value ([4]; tiamulin 40 mg/kg IM twice daily 4 d) was 2.26 log10 CFU/mL and the “MPcounts in BALF (AV)” value ([4]; 96h) was 3.805 Log10CFU/mL. For the same compound, the “MPcounts in BALF” value ([4]; 96h) was 3.506 Log10CFU/mL and 3.899 Log10CFU/mL and 3.382 Log10CFU/mL and 5.052 Log10CFU/mL and 3.608 Log10CFU/mL and 3.384 Log10CFU/mL, the “MPcounts in BALF (AV)” value ([4]; 192 h) was 3.657 Log10CFU/mL and the “MPcounts in BALF” value ([4]; 192h) was 3.57 Log10CFU/mL (2×) and 3.868 Log10CFU/mL and 3.692 Log10CFU/mL and 3.619 Log10CFU/mL and 3.625 Log10CFU/mL. For the same compound, the “microbial reduction in BALF” value ([4]; tiamulin 40 mg/kg PO (tiamulin fumarate soluble powder) twice daily 4 d) was 1.17 log10 CFU/mL.
